13 molecules from patent US20190184054A1, “COMPOSITIONS FOR THE TREATMENT OF PAIN AND/OR INFLAMMATION” (BCN PEPTIDES. S.A., priority 2008, published 2019) can be followed below.

This experiment deals with inflammation produced by intraplantar injection of carrageenan. As to the kind of experiment: carrageenan test: paw volume increase after intraplantar carrageenan, measured with a plethysmometer. It counts as in vivo. An excerpt:
Carrageenan is an irritant whose administration causes a powerful inflammation four hours after administration. The inflammatory process can be easily discerned as an increase in the volume of the paw that received carrageenan, measured with a plethysmometer. […] Therefore, the peptides of this invention have anti-inflammatory activity in vivo.
For orientation: In the carrageenan paw model, swelling and tenderness develop within hours.

The mark [1] stands for this setting: peptides 5 mg/kg (im), decrease in inflammation standardized to positive control diclofenac.

Primed or numbered codes have the meaning given here. *: point of attachment. PEG1′ = PEG spacer, n=1 in acetyl-PEGn N-terminus; PEG2′ = PEG spacer, n=2 in acetyl-PEGn N-terminus; PEG3′ = PEG spacer, n=3 in acetyl-PEGn N-terminus; PEG4′ = PEG spacer, n=4 in acetyl-PEGn N-terminus; PEG5′ = PEG spacer, n=5 in acetyl-PEGn N-terminus; Palmitoyl = CCCCCCCCCCCCCCCC(=O)*

In the case of `O=C(O)Cc1ccccc1Nc1c(Cl)cccc1Cl` [diclofenac, reference compound], the “ANTI-INFLAMMATORY ACTIVITY” value (diclofenac 10 mg/kg, positive control used as the standard) worked out at 100%.

Regarding “Ac-PEG1-SEQ ID No. 11-NH2: acetyl-PEGn (n=1) N-terminus, amide C-terminus; SNAP-25 residues 12 to 17 (SEQ ID No. 11) ({Ac-PEG1′}-EEMQRR-NH2; listed as Homo sapiens)”, under setting [1], the “ANTI-INFLAMMATORY ACTIVITY” value was 21%.

As for “Ac-PEG2-SEQ ID No. 11-NH2: acetyl-PEGn (n=2) N-terminus, amide C-terminus; SNAP-25 residues 12 to 17 (SEQ ID No. 11) ({Ac-PEG2′}-EEMQRR-NH2; listed as Homo sapiens)”, the “ANTI-INFLAMMATORY ACTIVITY” value under setting [1] was 29%. Still for that read-out and setting: next, “Ac-PEG3-SEQ ID No. 11-NH2: acetyl-PEGn (n=3) N-terminus, amide C-terminus; SNAP-25 residues 12 to 17 (SEQ ID No. 11) ({Ac-PEG3′}-EEMQRR-NH2; listed as Homo sapiens)”: 42%; “Ac-PEG4-SEQ ID No. 11-NH2: acetyl-PEGn (n=4) N-terminus, amide C-terminus; SNAP-25 residues 12 to 17 (SEQ ID No. 11) ({Ac-PEG4′}-EEMQRR-NH2; listed as Homo sapiens)”: 23%.

“Ac-PEG5-SEQ ID No. 11-NH2: acetyl-PEGn (n=5) N-terminus, amide C-terminus; SNAP-25 residues 12 to 17 (SEQ ID No. 11) ({Ac-PEG5′}-EEMQRR-NH2; listed as Homo sapiens)”: the “ANTI-INFLAMMATORY ACTIVITY” value under setting [1] came to 53%. The same measure, in the same setting: under “Ac-SEQ ID No. 4-NH2: acetyl N-terminus, amide C-terminus; SNAP-25 residues 10 to 22 (SEQ ID No. 4) (Ac-ELEEMQRRADQLA-NH2; listed as Homo sapiens)” stands 65%.

Take “Ac-SEQ ID No. 9-NH2: acetyl N-terminus, amide C-terminus; SNAP-25 residues 26 to 38 (SEQ ID No. 9) (Ac-LESTRRMLQLVEE-NH2; listed as Homo sapiens)”: the “ANTI-INFLAMMATORY ACTIVITY” value under setting [1] came to 98%. On to “Ac-SEQ ID No. 11-NH2: acetyl N-terminus, amide C-terminus; SNAP-25 residues 12 to 17 (SEQ ID No. 11) (Ac-EEMQRR-NH2; listed as Homo sapiens)”, for which, under setting [1], the “ANTI-INFLAMMATORY ACTIVITY” value is given as 49%. Same read-out and setting: under “Ac-SEQ ID No. 26-NH2: acetyl N-terminus, amide C-terminus; SNAP-25-derived sequence SEQ ID No. 26 (Ac-EEMQRRA-NH2; listed as Homo sapiens)” stands 14%; under “Palm-SEQ ID No. 4-NH2: palmitoyl N-terminus, amide C-terminus; SNAP-25 residues 10 to 22 (SEQ ID No. 4) (Palmitoyl-ELEEMQRRADQLA-NH2; SMILES CCCCCCCCCCCCCCCC(=O)N[C@@H](CCC(=O)O)C(=O)N[C@@H](CC(C)C)C(=O)N[C@@H](CCC(=O)O)C(=O)N[C@@H](CCC(=O)O)C(=O)N[C@@H](CCSC)C(=O)N[C@@H](CCC(N)=O)C(=O)N[C@@H](CCCNC(=N)N)C(=O)N[C@@H](CCCNC(=N)N)C(=O)N[C@@H](C)C(=O)N[C@@H](CC(=O)O)C(=O)N[C@@H](CCC(N)=O)C(=O)N[C@@H](CC(C)C)C(=O)N[C@@H](C)C(N)=O; listed as Homo sapiens)”, 58%; under “Palm-SEQ ID No. 9-NH2: palmitoyl N-terminus, amide C-terminus; SNAP-25 residues 26 to 38 (SEQ ID No. 9) (Palmitoyl-LESTRRMLQLVEE-NH2; SMILES CCCCCCCCCCCCCCCC(=O)N[C@@H](CC(C)C)C(=O)N[C@@H](CCC(=O)O)C(=O)N[C@@H](CO)C(=O)N[C@H](C(=O)N[C@@H](CCCNC(=N)N)C(=O)N[C@@H](CCCNC(=N)N)C(=O)N[C@@H](CCSC)C(=O)N[C@@H](CC(C)C)C(=O)N[C@@H](CCC(N)=O)C(=O)N[C@@H](CC(C)C)C(=O)N[C@H](C(=O)N[C@@H](CCC(=O)O)C(=O)N[C@@H](CCC(=O)O)C(N)=O)C(C)C)[C@@H](C)O; listed as Homo sapiens)”, 77%. Still for that read-out and setting: next, “Palm-SEQ ID No. 11-MH2: palmitoyl N-terminus, amide C-terminus; SNAP-25 residues 12 to 17 (SEQ ID No. 11) (Palmitoyl-EEMQRR-NH2; SMILES CCCCCCCCCCCCCCCC(=O)N[C@@H](CCC(=O)O)C(=O)N[C@@H](CCC(=O)O)C(=O)N[C@@H](CCSC)C(=O)N[C@@H](CCC(N)=O)C(=O)N[C@@H](CCCNC(=N)N)C(=O)N[C@@H](CCCNC(=N)N)C(N)=O; listed as Homo sapiens)”: 81%.
